Laboratory results: US7186703B2, “Derivatives of branched-chain lipophilic molecules and uses thereof” (D-Pharm Ltd., priority 2000, dated 2007)

What was measured:
[1] = system: C6 glioma tumor; assay: Anti-tumor effect in C6 glioma-bearing rats, tumor volume and appearance (Example 28); format: in vivo, Sprague Dawley (SD) rats
Experimental: The anti-tumor effect of DP-BFA was evaluated by monitoring tumor volume and appearance in a model system of C6 glioma-bearing rats. Sprague Dawley (SD) rats were inoculated with 2.5×10^5 C6 glioma cells in 5 μl PBS as follows. Rats were mounted into a stereotactic head holder in a flat-skull position. After reflections of the periosteum, a burr hole was preformed with a 1 mm drill in the following coordinates: bregma—1.0, 3.50 mm lateral from the midline on the left side, and at a depth of 3.50 mm. The cell suspension was manually injected at a depth of 3.50 mm using a 10 μl Hamilton syringe.
The pterigo-palatina artery was legated, and the common carotid artery was clamped at the time of infusion.
Five days after the inoculation of the C6 tumor cells, the rats were anesthetized with Ketamin/xylazin (1:1) 0.1 ml/100 grams body weight, perfused with saline and fixed with 4% Formaldehyde solution. Brains were removed and cryoprotected in a sucrose solution for 48 h. The brains were then sliced in coronal section, stained with Haematoxylin-Eosine and underwent pathology evaluation.

[2] = system: blood tumor barrier / blood brain barrier; assay: Unilateral administration in rats with bilateral C6 gliomas, Evans blue staining of brain sections; format: in vivo, SD rats; conditions: 10 μM 3,12-DEG-HPO4Na; 40 μM 3,12-Na; 25% mannitol; unilateral infusion
Experimental: FIGS. 2A–C depict Evans blue accumulation in brain sections of rats bearing bilateral gliomas following unilateral administration of a compound as follows: 10 μM 3,12-DEG-HPO4Na (FIG. 2A), 40 μM 3,12-Na (FIG. 2B) or mannitol 25% (FIG. 2C).
Evans Blue and Fluoroscein penetration into gliomas tumors was examined following unilateral infusion into the external carotis artery of either 10 μM 3,12-DEG-HPO4Na (FIG. 2A), 40 μM 3,12-Na BFA (FIG. 2B) or 25% mannitol (FIG. 2C). The relevant compound was infused into rat brains at 9 to 12 days following inoculation of C6 glioma cells as described in Example 23.

[3] = system: DNA fragmentation in Neuro2a neuroblastoma cells; assay: DNA fragmentation in Neuro2a cells (Cell Death Detection Elisa); format: cell-based, mouse; conditions: for DNA fragmentation (OD405 nm): 24 hours, Neuro2a (control 0.030)
Experimental: (§1) In order to further explore the possible mechanism underlying the cytotoxic effect exerted by the various DP-BFAs, two established markers for apoptosis, caspase-3 activity and DNA fragmentation (Lincz (1998) Immunol. Cell Biol. 76: 1–19), were studied.
(§2) Neuro2a neuroblastoma cells (ATCC, CCL-131) were seeded in MEM containing 2 mM L-glutamine, 100 units/ml penicillin, 100 ug/ml streptomycin and 10% FCS at 37° C. 24 hours later, when cells were in logarithmic growth phase, 3,12-DEG-PC was added to a final concentration of 25 μM, 50 μM or 100 μM. Cells grown in the presence of vehicle only served as control group.
(§3) Assays for caspase-3 activity and DNA-fragmentation were performed on cell lysates obtained following, respectively, 6 and 24 hours incubation with the drug. Caspase-3 activity was assayed using the fluorogenic substrate Ac-DEVD-AMC (Pharmingen, Becton Dickinson, cat. no. 66081U) and following the manufacture's instructions. DNA-fragmentation was quantified by using the Cell Death Detection Elisa plus kit (Roche, cat. no. 1774 425) and following the manufacture's instructions.
(§4) The measured caspase activity is expressed as percentage of the activity in the control plates normalized to protein content. DNA-fragmentation is expressed as OD values at λ=405 nm and is an average of readings from duplicate cell culture lysates.

[4] = system: caspase-3 activity in Neuro2a neuroblastoma cells; assay: Caspase-3 activity in Neuro2a cell lysates (Ac-DEVD-AMC substrate); format: cell-based, mouse
Experimental: as §1, §2, §3, §4

[5] = system: Chinese hamster ovary (CHO) AA8 cell line; assay: LDH release toxicity assay in cultured CHO AA8 cells; format: cell-based; conditions: 1 hour incubation, read-out: LC50 (the source's name)
Experimental: Various DP-BFA molecules were screened in cultured Chinese hamster ovary (CHO) AA8 cell line in order to establish their toxicity. LC50 values, i.e. the concentrations causing death in 50% of cell population, were calculated from dose response curves. LC50 values of phospho-BFAs were compared to those of the corresponding branched fatty acids (=carbo-BFAs).
Lactate dehydrogenase (LDH) release was used as an assay for the integrity of the cells membrane and, thus, for estimation of toxicity. Cells (2×10^5/ml) were seeded (150 μl/well) in 96 well plates, in RPMI-1640 medium containing 10% FCS. After two days, tested DP-BFA compounds or the control compound myristic acid were added to the plates in declining concentrations ranging from 500 to 1 μg/ml. Cells were harvested after one hour. […] Other controls included, two blank wells and five wells containing cells with no additional drugs. Following centrifugation (1500 rpm, 5 min), 75 μl of the supernatant was transferred to a new plate with 45 μl of an LDH assay mix (Tox-7 kit, Sigma). After 10–20 minutes at room temperature, absorbance was measured using an Elisa Reader 490 nm.
Each experiment was performed in triplicate.

[6] = system: blood brain barrier (BBB); assay: Duration of the effect on BBB opening in rat brain; format: in vivo, Sprague Dawley rats; conditions: EC50 concentrations of the tested compounds
Description: The effects of DP-BFA on Evans Blue and Fluoroscein extravasation in rat brain were examined at various time points following DP-BFA administration. Various DP-BFA compounds were infused, over a period of 30 seconds, into the external carotid artery of Sprague Dawley rats, following the procedure described above in Example 17. The tested compounds were used at their EC50 concentrations. […] Two compounds, 3,12-PC and 3,12-MEG-PC, both comprising a phosphocholine moiety, have shown D1/2 which was 4 times longer than the other tested 3,12-BFA derivatives, i.e. D1/2 of around 120 min.

## 2-(4′-Hexadecanoyloxy)ethoxyethyl phosphate [3,12-DEG-PO4]
[1]; rat, in vivo
  anti-tumor effect, invasiveness and rate of growth (in words): significant anti-tumor effect
[1]; single dose 5 to 20 μM, 72 h post inoculation, vehicle 8.1±2.2
  Tumor volume: 1.6±0.2 mm^3
[2]
  Evans Blue staining of tumor and non-tumor brain (FIG. 2, in words): only in the tumor tissue in the ipsilateral hemisphere

## CCCCCCCCCCCCC(CCC)C(=O)OCCOCCOP(=O)([O-])OCC[N+](C)(C)C (stereo not drawn) [3,12-DEG-PC, 2-(2′-Propyltetradecanoyloxy)ethoxyethylphosphocholine]
[3]; 25 μM
  DNA fragmentation (OD405 nm): 0.036 OD405 nm
[3]; 50 μM
  DNA fragmentation (OD405 nm): 0.153 OD405 nm
[3]; 100 μM
  DNA fragmentation (OD405 nm): 0.389 OD405 nm
[3]; Neuro2a cells
  DNA fragmentation (in words): significant increase in DNA fragmentation
[4]; Mus musculus, N2a, 25 μM, 6 hours, Neuro2a, normalized to protein content, read-out: Caspase activity (% of control)
  activity at 25 µM: 210%
[4]; Mus musculus, N2a, 50 μM, 6 hours, Neuro2a, normalized to protein content, read-out: Caspase activity (% of control)
  activity at 50 µM: 540%
[4]; Neuro2a cells
  increase in caspase-3 activity: about 5 fold

## CCCCCCCCCCCCC(CCC)C(=O)OCCOCCOP(=O)([O-])[O-].[Na+].[Na+] (stereo not drawn) [3,12-DEG-PO4Na2, 2-[2′-(2″-Propyltetradecanoyloxy)-ethoxy]ethyl Disodium Phosphate]
[5]
  CC50: 320 µM

## CCCCCCCCCCCCC(CCC)C(=O)OCCOP(=O)([O-])OCC[N+](C)(C)C (stereo not drawn) [3,12-MEG-PC, 2-(2′-Propyltetradecanoyloxy)ethylphosphocholine]
[6]
  D1/2 (duration of at least 50% opening of the BBB): around 120 min

## CCCCCCCCCCCCC(CCC)C(=O)[O-].[Na+] (stereo not drawn) [3,12-Na, reference compound]
[5]
  CC50: 165 µM
[2]
  Evans Blue staining of tumor and non-tumor brain (FIG. 2, in words): equally permeabilized tumor and non-tumor brain tissues

## CCCCCCCCCCCCC(CCC)OP(=O)([O-])OCC[N+](C)(C)C (stereo not drawn) [3,12-PC, 4-Hexadecanyl phosphocholine]
[6]
  D1/2 (duration of at least 50% opening of the BBB): around 120 min
